# Test results taken from PMC9474773, “PARP targeted Auger emitter therapy with [^125I]PARPi-01 for triple-negative breast cancer” (EJNMMI Research, 2022).
# Entries after “also recorded” stand apart in the source; their conditions may differ.
# Key:
# [1] = tested on: subcutaneous MDA-MB-231 models; assay: Endogenous therapy study (CT-based tumour growth, survival, [18F]FDG PET); type: in vivo, NOD/SCID mice
# Procedure: Female NOD/SCID mice at 5–6 weeks of age (Janvier, France) was used for developing subcutaneous TNBC tumour. Animals were housed in 20–24 °C in a 12 h day light cycle. For each mouse, 3 × 10^6 MDA-MB-231 cells were suspended in a 1:1 (volume) mixture of Culture media: Matrigel® matrix (Corning®, Product No: 356237). Mice were inoculated with this cell suspension (max 200 µl) subcutaneously in the right flank. Tumour growth was monitored daily using calliper measurements. Tumour volume was calculated daily according to the formula Tumourvolume=TumourLength×Tumourbreadth^2×0.52
# Upon reaching of a tumour volume of 500 mm^3, animals were proceeded for experiments. For biodistribution study animals were administered with [^123I]PARPi-01 (n = 3). For therapy studies animals were randomized for control (n = 10) or [^125I]PARPi-01 administration (n = 10). Randomisation was done based on equivalent distribution of tumour volumes. In addition to the daily calliper measurements image analysis of CT based tumour volumes was blinded to avoid bias. Animals were sacrificed upon completion of biodistribution study or upon reaching a humane end point for the therapy study. Humane end point is determined as reaching of either of the following conditions: 15 mm tumour diameter, 1500 mm^3 tumour volume, or development of ulcers/ascites.
# Mice were administered intravenously via lateral tail vain with Saline (0.9% NaCl) or [^125I]PARPi-01 (8.15 ± 2.9 MBq/dose) in four doses at 10-day intervals. The tumour volume was measured using [^18F]FDG based PET/CT (Trifoil, USA) once per week. [^18F]FDG (2.3 ± 0.4 MBq, AAA, Düsseldorf, Germany) was intraperitoneally administered and scanned 30 min later. Upon reaching 520 mm^3 tumour volume, one additional CT imaging per week (Trifoil, USA) apart from the PET/CT was performed for monitoring tumour growth.
# After injection with [^18F]FDG, the mice were placed on the scanner bed and the CT scan was initiated. The exposure settings used were as follows: 130 uA, 75 kVp, 230 ms exposure time, and 360° rotation with 512 views; the duration of the CT scans was ~ 5 min. A dynamic 30 min PET scan was initiated at the end of the CT scan. […] During the scans, the isoflurane concentration was adapted to achieve a respiratory rate between 75–50 breaths per minute. Mice were maintained at 1% Isoflurane and heated at 37 °C from anaesthesia induction to the end of imaging. The CT images were reconstructed using a Feldkamp filtered back projection reconstruction process to a voxel size of 0.154 × 0.154 × 0.154 mm in a 592 × 592 × 560 matrix. Using vendor software, the CT values were converted into Hounsfield units (HU) using the following formula HU=1000×μt-μw÷μw where µw is the linear attenuation coefficient of the water and µt is the linear attenuation coefficient of the tissue. The PET data were reconstructed using a 3D ordered-subset expectation maximization (i.e., OSEM-3D with three iterations and eight subsets) with a maximum a posteriori probability algorithm (30 iterations) into a 240 × 240 × 192 image matrix (resulting in final voxel dimensions of 0.25 × 0.25 × 0.597 mm). PET normalization, CT attenuation correction, and CT scatter correction were applied to all PET reconstructions. The PET images were automatically aligned to the CT using a custom-made transformation in PMOD software package from a capillary phantom.
# All statistical analyses were performed using the Graph-Pad Prism software (Version 9.1.1). Biodistribution data is expressed as mean ± standard deviation. Kaplan–Meier Survival curve was analysed using survival analysis (Log rank Mantel-Cox test). The data points of the normalized tumour volume as a function of the time of the groups (Control, ^125I-PARPi, Control—excluded ulcers, ^125I-PARPi—excluded ulcers) were subjected to nonlinear regression analysis using the exponential growth formula Y = Y0*exp(k*x) (Malthusian). Accordingly, the doubling time is equal to ln(2)/k. […]
# [2] = tested on: MDA-MB-231 tumour tissue, liver, thyroid; assay: Apoptosis (TUNEL) staining of ex vivo tissue sections; type: in vivo, NOD/SCID mice
# Procedure: Organs excised and retrieved from control (n = 3) and therapy mice (n = 3) were fixed with 4% PFA overnight at 4 °C. For cryopreservation, the organs were kept for 2–3 days at 4 °C in 30% sucrose Cryosections (6 µm) of excised and preserved organs were made using a cryostat (Leica, CM3050S). For TUNEL fluorescence quantification, therapy mice (n = 3) and control mice (n = 3) slices were stained simultaneously. The TUNEL staining kit (Roche # 11684795910) was used and protocol was followed as mentioned in the staining kit. Tissues were washed with PBS and permeabilised with 0.1 % Triton-X in 0.1 % […] on ice for 2 min. Following permeabilization, sections were incubated with TUNEL reaction mixture (Fluorescence labelled Terminal deoxynucleotidyl transferase enzyme dissolved in nucleotide buffer) for 1 h at 37 °C. After PBS wash, the cells were mounted with RotiMount® Vectashield containing DAPI and analysed using fluorescence microscopy (Zen Lite, Carl Zeiss). The images were processed and quantified using CellProfiler 3.0 software.
# MDA-MB-231 cells [3] = tested on: MDA-MB-231 cells; set-up: method as in PMID 35008392; conditions: cited from earlier work
# MDA-MB-231 cells [4] = tested on: MDA-MB-231 cells; set-up: method as in PMID 35008392; conditions: cited from earlier work; remark: listed apart in the source
# MDA-MB-468 = assay: Nuclear uptake, subcellular fractionation with gamma counter; type: cell-based; conditions: 24 h, 1 MBq/10^6 cells
# Procedure: (§1) Breast cancer cells were seeded (0.5 × 10^6) in a 12-well plate and treated with [^125I]PARPi-01 (1 MBq/10^6 cells) for 24 h. Subcellular fractionation was performed using a Subcellular Fractionation kit (ThermoFischer inc., #78840. Protein concertation was assessed using BCA assay. SDS-PAGE was performed using the fractions (30 µg/lane) and Any KD Mini-Protean TGX gels (90 V for 1.5 h). The separated proteins were transferred to PVDF membranes using a wet blotting (60 V, 2 h) technique. The blots were then blocked with 1% Milk/TBST and incubated with a primary antibody (anti-PARP1 (1:1000); Abcam ab227244; anti-GAPDH (1:4000); cell signalling 14C10, or anti-Histon H3 1:1000) Abcam ab1791). For the phosphorimager analysis, after blotting, the blots were sandwiched with a Fujifilm Imaging plate for Bioanalyzer (BAS-MS 2040), and incubated overnight, and the protein bound activity was imaged using a phosphorimager (Typhoon FLA 7000 version 1.2). To assess the tracer uptake, both fractions were measured using a gamma counter (Wizard^2, Perkin Elmer, USA).
# MDA-MB-231 = assay: as above; type: cell-based; conditions: 24 h, 1 MBq/10^6 cells
# Procedure: as §1
# MCF-7 = assay: as above; type: cell-based; conditions: 24 h, 1 MBq/10^6 cells
# Procedure: as §1
compound,measurement,setting,value
O=C(c1ccc([125I])cc1)N1CCN(C(=O)c2cc(Cc3n[nH]c(=O)c4ccccc34)ccc2F)CC1 [[^125I]PARPi-01],radiotoxicity in liver and thyroid,"[1]; 4 doses, 10 MBq/dose",No radiotoxicity was detected
same,tumour doubling time,"[1]; CT-based, excluding animals sacrificed for ulcers/ascites, n = 5",15.07 days
same,tumour doubling time,"[1]; CT-image-based, 4 doses 10 days apart, all animals n = 10",14.2 days
same,median survival,"[1]; all animals n = 10, not significant vs control (P = 0.2505)",36 days
same,median survival time,[1]; excluding animals sacrificed for ulcers/ascites,38
same,"[18F]FDG PET SUV values and tumour metabolic volumes, therapy vs control","[1]; mouse, in vivo",did not show significant difference
same,apoptosis in liver or thyroid,[2]; therapy group,did not show any noticeable apoptosis; also recorded: no noticeable apoptosis
same,percentage of nuclei in tumour positive for apoptosis,"[2]; therapy group n = 3, P < 0.05 vs control",52.5 ± 19.0%
same,level of apoptosis induction,MDA-MB-231 cells [3],remained comparable low
same,colony formation after treatment,MDA-MB-231 cells [4],significant reduction in colony formation
same,"nuclear tracer localization, of total tracer",MDA-MB-468,> 75%
same,"nuclear tracer localization, of total tracer",MDA-MB-231,> 75%
same,"nuclear tracer localization, of total tracer",MCF-7,more than 40%
